Measurements published in PMC6125496 (Antimicrobial Agents and Chemotherapy, 2018).
Values after ≈ are worked out from the molar mass of the structure shown. Non-standard residues stand in square brackets, D forms with d. Residues, ends and D or L forms follow the SMILES beside them. Dab(3S-OH) = NC[C@H](O)[C@H](N)C(=O)O; Phe(2-F) = N[C@@H](Cc1ccccc1F)C(=O)O; ΔZArg = N=C(N)NCC/C=C(\N)C(=O)O; dOrn = NCCC[C@@H](N)C(=O)O; Dab = NCC[C@H](N)C(=O)O

Columns and labels:
CHO-K1 cells = conditions: 512 μM, 24 h; S9 medium negative control 0.7%
Experimental: The test was conducted by Eurofins Panlabs. […] At the end of the incubation period the cells were fixed, and their DNA was stained with Hoechst. The visualization and scoring of the cells was done using an automated fluorescence microscope coupled with proprietary automated image analysis software ([46]). The percent micronucleated cells was calculated.

in vitro [1] = conditions: liver microsomes, pH 7.4
Experimental: The microsome metabolic stability assays were performed by Cyprotex Discovery Ltd. (Macclesfield, UK). Pooled microsomes from different species (mouse, rat, dog, monkey, and human) were stored at −80°C prior to use. […] The final incubation volume was 500 μl. A minus cofactor control incubation was included for each compound tested, in which 0.1 M phosphate buffer (pH 7.4) was added instead of NADPH (minus NADPH). Two control compounds were included with each species. Each compound was incubated for 0, 5, 15, 30, and 45 min. The control (minus NADPH) was incubated for 45 min only. The reactions were stopped by transferring an aliquot of the mixture to 40% TCA in water containing an internal standard (NOSO-95216, 1 μM final concentration) for the test compounds, or methanol for the control compounds, at the desired time points. The termination plates were centrifuged at 2,500 rpm for 20 min at 4°C to precipitate the protein. Following protein precipitation, the test compound sample supernatants were diluted with analytical-grade water, whereas the control compounds were diluted with an internal standard (metoprolol) in water. The test compound samples were analyzed by LC-MS/MS.

in vitro [2] = conditions: cryopreserved pooled hepatocytes
Experimental: The hepatocyte metabolic stability assays were performed by Cyprotex Discovery Ltd. (Macclesfield, UK). This assay utilizes cryopreserved pooled hepatocytes from different species (mouse, rat, dog, monkey, and human), stored in liquid nitrogen prior to use. […] The final incubation volume was 500 μl. Two control compounds were included with each species alongside an appropriate vehicle control. […] The termination plates were centrifuged at 2,500 rpm at 4°C for 30 min to precipitate the protein. Following protein precipitation, the test compound sample supernatants were diluted with analytical-grade water, whereas the control compounds were diluted with an internal standard (metoprolol) in water. The test compound samples were analyzed by liquid chromatography-tandem mass spectrometry (LC-MS/MS).

in vitro [3] = conditions: plasma, pH 7.4
Experimental: The final incubation volume was 200 μl. All incubations were performed singularly for each compound at each time point. A vehicle control incubation was included using either water or DMSO, along with a control compound known to be metabolized specifically by each species. Each compound was incubated for 0, 15, 30, 60, and 120 min at 37°C. The reactions were stopped by the addition of 40% TCA in water containing an internal standard (NOSO-95216, 1 μM final concentration) for the test compounds, or methanol for the control compounds, at the appropriate time points. The vehicle control incubation was incubated for 120 min only. The termination plates were centrifuged at 3,000 rpm for 45 min at 4°C to precipitate the protein. Following protein precipitation, the test compound sample supernatants were diluted with analytical-grade water, whereas the control compounds were diluted with an internal standard (metoprolol) in water. The test compound samples were analyzed by LC-MS/MS.

in vivo = conditions: female, plasma, iv
Experimental: Pharmacokinetic analyses were performed by Pharmacelsus (Saarbrücken, Germany). […] Blood (100 μl) was collected from three animals per time point (5, 10, 20, 30, 60, and 120 min postdose for mice and 5, 15, 30, 60, 180, and 420 min postdose for rats) in tubes containing K3-EDTA as an anticoagulant. Samples were stored on ice and centrifuged at 6,000 rpm for 10 min at 4°C. A sample volume of 50 μl was mixed with 5 μl of solvent (acetonitrile-H2O-DMSO, [5/4/1, vol/vol/vol] plus 1% formic acid). A volume of 10 μl of solvent containing the internal standard and 50 μl of precipitant (10% TCA) were added to 55 μl of sample. The mixture was vortexed and centrifuged at 6,000 × g (room temperature) for 10 min. The protein-free supernatant was analyzed by LC-MS using an Ultimate 3000RS ultrahigh-performance liquid chromatograph (U-HPLC) coupled with an Orbitrap Q Exactive mass spectrometer.
Analytes were separated on a Accurore phenyl-hexyl analytical column (2.1 by 50 mm, 2.6 μm; Thermo, Germany) using a linear gradient of mobile phase A (acetonitrile-0.2% heptafluorobutyric acid)-mobile phase B (water-0.2% heptafluorobutyric acid), starting from 5% mobile phase A to 97% in 2.2 min, and a flow rate of […]. Peaks were analyzed by mass spectrometry (ESI ionization in MRM mode) using Xcalibur 4.0 software. The products analyzed, [M + 2H]^2+ and [M + 3H]^3+, were 539.8 and 360.2 Da, respectively. PK parameters were calculated using a noncompartmental analysis model and Kinetica 5.0 software (Thermo Scientific, Waltham, MA). The mean plasma concentrations from all three mice at each time point were used in the calculation.

hERG = hERG (Homo sapiens, UniProt Q12809); test: in vitro
Chain of hERG (Q12809 whole entry): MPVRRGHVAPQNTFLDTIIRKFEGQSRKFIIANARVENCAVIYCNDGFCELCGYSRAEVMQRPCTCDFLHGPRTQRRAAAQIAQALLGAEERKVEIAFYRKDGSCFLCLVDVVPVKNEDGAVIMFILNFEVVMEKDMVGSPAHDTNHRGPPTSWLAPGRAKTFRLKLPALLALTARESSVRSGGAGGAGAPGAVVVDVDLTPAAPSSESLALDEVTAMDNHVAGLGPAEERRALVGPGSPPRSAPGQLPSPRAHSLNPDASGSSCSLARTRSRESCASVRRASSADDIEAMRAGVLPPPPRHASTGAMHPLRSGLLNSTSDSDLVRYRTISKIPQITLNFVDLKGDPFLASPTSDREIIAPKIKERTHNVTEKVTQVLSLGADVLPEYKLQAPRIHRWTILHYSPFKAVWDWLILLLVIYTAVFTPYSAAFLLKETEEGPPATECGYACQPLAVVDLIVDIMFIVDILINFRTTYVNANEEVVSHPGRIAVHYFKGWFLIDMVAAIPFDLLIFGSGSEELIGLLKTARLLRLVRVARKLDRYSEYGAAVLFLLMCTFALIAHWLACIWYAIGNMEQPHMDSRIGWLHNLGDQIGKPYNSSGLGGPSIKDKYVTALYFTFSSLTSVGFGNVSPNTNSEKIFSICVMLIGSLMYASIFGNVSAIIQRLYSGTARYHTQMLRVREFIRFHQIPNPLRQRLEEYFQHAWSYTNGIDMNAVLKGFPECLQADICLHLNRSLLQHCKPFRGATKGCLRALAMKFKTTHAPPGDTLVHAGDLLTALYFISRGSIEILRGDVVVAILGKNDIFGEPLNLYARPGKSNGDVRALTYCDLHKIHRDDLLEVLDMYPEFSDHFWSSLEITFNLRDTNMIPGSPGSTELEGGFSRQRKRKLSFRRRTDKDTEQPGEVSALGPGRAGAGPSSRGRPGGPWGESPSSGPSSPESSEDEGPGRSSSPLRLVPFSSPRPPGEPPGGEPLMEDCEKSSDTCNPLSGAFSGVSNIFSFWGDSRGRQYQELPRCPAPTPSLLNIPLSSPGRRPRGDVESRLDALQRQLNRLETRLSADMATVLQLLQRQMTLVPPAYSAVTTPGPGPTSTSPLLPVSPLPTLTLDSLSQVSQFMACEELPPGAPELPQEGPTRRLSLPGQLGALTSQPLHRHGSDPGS
Experimental: Inhibition of the human ether-a-go-go-related gene (hERG) cardiac potassium ion channel was determined by Eurofins Panlabs (Eurofins Panlabs, Inc., St. Charles, MO) in CHO-K1 (Chinese hamster ovary) cells stably transfected with human hERG cDNA using QPatch automated whole-cell patch clamp electrophysiology as described in reference [45]. […] In this method, the extracellular solution (control) is applied first and the cell is stabilized in the solution for 5 min. Then the test compound is applied from low to high concentrations sequentially on the same cell, with 5 min for each test concentration, at room temperature.

in vitro [4] = conditions: human, cryopreserved pooled hepatocytes

Experimental for E. coli UTI89: MIC values were determined using Clinical and Laboratory Standards Institute (CLSI) broth microdilution methodology, colony direct suspension, as described in CLSI document M07-A10 ([42]).

For `N=C(N)NCC/C=C(\NC(=O)[C@H](CCCCN)NC(=O)[C@H](Cc1ccccc1F)NC(=O)[C@@H]1CCCN1C(=O)[C@@H](CCCN)NC(=O)CNC(=O)[C@H](CCN)NC(=O)[C@@H](NC(=O)[C@@H](N)CCCCN)[C@@H](O)CN)C(=O)O` [NOSO-502] (H-K[Dab(3S-OH)][Dab]G[dOrn]P[Phe(2-F)]K[ΔZArg]-OH), the cells with micronuclei (CHO-K1 cells) was 0.61%, the half-life at 1 μM (in vitro [1]; dog) was 1.68 h and the half-life at 1 μM (in vitro [1]; human) was 2.42 h. The half-life at 1 μM (in vitro [1]; monkey) was 2.45 h, the half-life at 1 μM (in vitro [1]; mouse) was 1.93 h and the half-life at 1 μM (in vitro [1]; rat) was 2.15 h. The half-life at 1 μM (in vitro [2]; dog) was 8.05 h, the half-life at 1 μM (in vitro [2]; monkey) was 11.6 h and the half-life at 1 μM (in vitro [2]; mouse) was 3.2 h. The half-life at 1 μM (in vitro [2]; rat) was 3.23 h, the half-life at 10 μM (in vitro [3]; dog) was 2.63 h and the half-life at 10 μM (in vitro [3]; human) was 1.32 h. For the same molecule, the half-life at 10 μM (in vitro [3]; monkey) was 1.6 h, the half-life at 10 μM (in vitro [3]; mouse) was 0.9 h and the half-life at 10 μM (in vitro [3]; rat) was 0.6 h. The AUC(0-t) (in vivo; CD-1, mouse, 30 mg/kg) was 8880 ng·h/mL, the Cmax (in vivo; CD-1, mouse, 30 mg/kg) was 23500 ng/mL and the Vd (in vivo; CD-1, mouse, 30 mg/kg) was 0.66 L/kg. The clearance (in vivo; CD-1, mouse, 30 mg/kg) was 18.8 mL/min/kg, the half-life (in vivo; CD-1, mouse, 30 mg/kg) was 0.417 h and the AUC(0-t) (in vivo; Sprague-Dawley, rat, 15 mg/kg) was 7990 ng·h/mL. The Cmax (in vivo; Sprague-Dawley, rat, 15 mg/kg) was 40700 ng/mL, the Vd (in vivo; Sprague-Dawley, rat, 15 mg/kg) was 0.94 L/kg and the clearance (in vivo; Sprague-Dawley, rat, 15 mg/kg) was 32 mL/min/kg. The half-life (in vivo; Sprague-Dawley, rat, 15 mg/kg) was 1.5 h, the MIC (E. coli UTI89) was 4 µg/mL (≈ 3.71 µM) and the inhibition at 5 min, 256 µM (hERG) was 2.6%. It also gave an inhibition at 5 min, 512 µM (hERG) of 1.9% and a half-life at 1 μM (in vitro [4]) of 5.48 h.
